In a melting point compilation (Tetko et al.; mined from patent text by program, amines drawn as free bases though some values may be those of a salt):

melting point [°C]	SMILES
125	Cc1cccc(-c2n[nH]cc2-c2ccc(F)c(-c3ccc(S(N)(=O)=O)s3)c2)n1
69	CC(C(=S)NCN1CCOCC1)c1ccccn1 (stereo unspecified)
177	O=C(O)COc1ccc(C(=O)c2ccoc2)c2ccccc12
> 300	O=c1[nH]c2cc(Cl)ccc2c(O)c1Sc1ccccc1Br
143	c1ccc(OCCN2CCN(Cc3c[nH]c4ncccc34)CC2)cc1
110 to 114	CCCCc1oc2ccccc2c1C(=O)c1cc(Cl)c(O)c(Cl)c1
146 to 149	CO[C@H]1C(=O)N(S(C)(=O)=O)[C@H]2CCN(C(=O)OCc3ccccc3)[C@H]12 (relative stereo)
58 to 60	Cc1ccc2c(c1C)OC(=O)C2c1ccc(C(C)C)cc1 (stereo unspecified)
171 to 176	CNCCn1nc2c3c(c(Cl)ccc31)C(=O)c1c(OCc3ccccc3)ccc(OCc3ccccc3)c1-2
70.8 to 72.1	COc1ccc2ccccc2c1-c1c(C)c2c(c(C)c1P(=O)(c1ccccc1)c1ccccc1)CCC2
238 to 239	CC1(C)CCc2c(N3CCOCC3)nc3sc4c(NCCc5ccccn5)ncnc4c3c2C1
148	CNC(=O)c1cccc(NC(=O)COc2ccccc2C)c1
92 to 95	COc1ccc2cc([C@H](C)C(=O)OCC(=O)COC(=O)Cc3ccc(CO[N+](=O)[O-])cc3)ccc2c1
267	Cc1cc(-c2cccc(C3=Nc4cc(N5CCCC5)c(C#N)cc4NC(=O)C3)c2)on1
189 to 192	CCOc1c(-c2nnn[nH]2)oc2c3ccccc3n(-c3ccccc3)c12
165 to 167	Cn1c(-c2ccc(-c3cncs3)cc2)cnc1[C@H](Cc1ccccn1)N(C=O)c1cc2cc(Cl)ccc2o1
296 to 298	CCNC(=O)Nc1nc2cc(-c3cccnc3)cc(N3CCC(O)C3)n2n1 (stereo unspecified)
153 to 155	Cn1c(CCN2CCN(c3ccccc3)CC2)nc2c3ccccc3ccc21
162	CCOc1ncnc(OCC)c1NC(=S)NC(=O)c1ccccc1
246 to 250	Cn1c(=O)c(-c2ccc(Cl)cc2Cl)cc2c3cc(-c4ccn[nH]4)ccc3[nH]c21

melting point [°C]	SMILES
188 to 190	CCOC(=O)c1ncn(C(c2ccccc2)(c2ccccc2)c2ccccc2)c1C
200 to 216	CNC(=O)CN1CCc2cc(Nc3ncc(Cl)c(Nc4ccccc4C(=O)NC)n3)c(OC)cc2CC1
128	Cc1cccc(-c2cnn(-c3ccnc(-c4ccc(CN5CCOCC5)cc4)c3)c2)n1
157 to 159	O=C(NC1CCCc2cc(C(=O)Nc3ccncc3)ccc21)OCc1ccccc1 (stereo unspecified)
153	CN(C)C=C(C(=O)C(=O)c1ccccc1C(=O)O)c1ccccc1
194 to 195	Cc1sc(C(=O)NCc2ccc3c(c2)OCO3)cc1NC(=O)NCc1ccccc1
168	COC1=C(OC)CC(C)(CNCCCCc2ccc(NC(=O)c3cccc4c(=O)c5cc(F)ccc5sc34)cc2)C=C1 (stereo unspecified)
86.5 to 89	CCC(CC)C(c1ccnn1-c1ccccc1)N(C)S(=O)(=O)c1ccc(Cl)cc1 (stereo unspecified)
196	CC(C)(C)C(O)Cn1ncn(-c2ccc(N3CCN(c4ccc(O[Si](C)(C)C(C)(C)C)cc4)CC3)cc2)c1=O (stereo unspecified)
262 to 263	O=c1[nH]c(=S)c2[nH]cnc2n1Cc1ccccc1
189 to 191	O=c1c2cc(F)c(N3CCCC3)nc2n(-c2ccc(F)cc2F)c(=O)n1O
276 to 278	COC(=O)c1ccc(C(=O)N(SSN(C(=O)c2ccc(C(=O)OC)cc2)c2ccccc2)c2ccccc2)cc1
174 to 175	Cc1c(-c2ccccc2)n(Cc2ccccc2)c2ccc(-c3ccc(OCC(=O)O)cc3)cc12
214	O=C1CN(c2ccccc2)C(=S)N1c1ccccc1
200 to 201	O=C1COC(=O)c2ccccc2N1
132 to 134	COC(=O)NCCCn1c(-c2ccc(Br)cc2)csc1=Nc1ccccc1
86 to 88	Cc1ccccc1-c1nc(-c2cccc(Cl)c2)n(C)n1
115 to 117	O=C1C(Cl)=C(c2ccccc2)C(=O)N1Nc1ccc(F)cc1
151 to 153	CCOC(=O)c1cnc(N2CCN(Cc3ccccc3)CC2)nc1O
59 to 61	COC(=O)c1c(C(C)C)nc(C(C)C)c(CN2CCC(N3CCCCC3)CC2)c1-c1ccc(F)cc1

The next lines start with the molecule.

SMILES	melting point [°C]
COc1nc(C(F)(F)F)cc(=O)n1-c1ccc(Cl)c(C(=O)O)c1	265 to 268
C#CCN1CCCc2ccc(OC(=O)NCCCCCCC)cc21	54
COC(=O)NC1CCc2sc(C3=NNC(=O)CC3)cc2C1 (stereo unspecified)	205 to 206
CCc1nc(NC(=N)N)sc1-c1cccc([N+](=O)[O-])c1	149 to 151
CCN(CC)CCNC(=O)c1cc(I)cc2c(=O)cc[nH]c12	141 to 143
CC(C)(C)NCC(O)COc1ccc(-c2csnn2)cc1 (stereo unspecified)	124 to 125
CC1NC(=O)N(c2ccc(F)c(Cl)c2)C1=O (stereo unspecified)	174 to 176
Cc1c(F)c(F)c(F)c(F)c1C(=O)O	80 to 82
CN(CC(=O)O)Cc1cc(C(=O)c2cccs2)cc(C(C)(C)C)c1O	180 to 182
CN1N=C(c2ccc(F)cc2)c2cc3nsnc3cc2CS1(=O)=O	272 to 275
CC(=O)c1cc(C=O)c(O)cc1O	134 to 136
CCCCNC(=O)CP(=O)(O)O	115 to 125
O=c1c2ccccc2c(Br)cn1C1CN2CCC1CC2 (racemic)	208 to 209
CCC(CCOC)n1cc(Cl)nc(N2CCc3cc(Cl)cc(Cl)c32)c1=O (stereo unspecified)	95 to 97
CC1(O[Si](C)(C)C(C)(C)C)CN(c2ccc([N+](=O)[O-])cc2F)C1	98 to 99.5
COC(=O)c1ccc(Br)c(C=O)c1	71 to 74

SMILES	melting point [°C]
O=[N+]([O-])CS(=O)(=O)c1ccc2c(c1)OCO2	131 to 132
COc1ccccc1CCC1CNC(=O)O1 (stereo unspecified)	76 to 77
CC(C)(C)c1ncc(C(=C(Cl)Cl)C(F)(F)F)cn1	58
C=C(C)Cc1cc(C=O)cc(OC)c1O	53 to 54
COc1ccc(C2CCCCC2)cc1-c1csc(N)n1	67
COC(=O)c1cnc(OC)c(N)c1	108 to 109
Cc1ccc(Cl)cc1NC(=S)Nc1ccn(C)n1	217 to 218
CCOC(=O)C1=C(N)Nc2ncnc(OC(C)C)c2C1c1ccccc1OC (stereo unspecified)	222 to 223
CN(C)Cc1cccc(-c2cc3c(=O)n(NS(C)(=O)=O)c(=O)[nH]c3cc2C(F)(F)F)c1	346 to 348
CC(=O)OC[C@@H]1C=C[C@H](n2cnc3c(=O)[nH]c(N)nc32)C1	247 to 249
CC(C)(C)c1cc(C=C(C#N)C#N)cc(Cl)c1O	173
COC(=O)C1=C(C)NC(C)=C(C(=O)OC)C1c1ccccc1COC(C)=O	149 to 151
O=C(CCl)Nc1ccc2cn[nH]c2c1	155 to 160
COc1cc(OC)nc(NC(=O)NS(=O)(=O)c2c(C(F)F)nsc2OCC(F)(F)F)n1	200 to 202
NC(=O)c1c(N)cccc1OCCO	149 to 151
